Experimental data from publication PMC4187505 (Journal of the American Heart Association: Cardiovascular …, 2014).

Experiments:
[1] = target: hlipocalin-2 (human lipocalin-2, neutrophil gelatinase-associated lipocalin) (Homo sapiens, UniProt P80188); experiment: isothermal titration calorimetry; format: binding
nonreducing SDS-PAGE = target: the molecule itself; experiment: nonreducing SDS-PAGE

Sequence of hlipocalin-2 (human lipocalin-2, neutrophil gelatinase-associated lipocalin) (P80188 21-198): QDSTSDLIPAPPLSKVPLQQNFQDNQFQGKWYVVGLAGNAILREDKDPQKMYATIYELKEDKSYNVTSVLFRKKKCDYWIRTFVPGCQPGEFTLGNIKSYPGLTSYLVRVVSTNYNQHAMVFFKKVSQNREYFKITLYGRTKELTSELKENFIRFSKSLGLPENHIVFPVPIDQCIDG

| Molecule | Kd [1] [µM] | ratio of homodimer/monomer (nonreducing SDS-PAGE) [homodimer/monomer] |
| --- | --- | --- |
| CCCCC/C=C\C/C=C\CCCCCCCC(=O)O [linoleic acid] | 0.487 |  |
| CCCCCCCC/C=C\CCCCCCCC(=O)O [oleic acid] | 1470 |  |
| human lipocalin‐2 mutant C87A (cysteine 87 replaced by alanine) (natural protein, UniProt P80188 21-198, looked up, contains a significantly lesser amount of polyamines than wild type) QDSTSDLIPAPPLSKVPLQQNFQDNQFQGKWYVVGLAGNAILREDKDPQKMYATIYELKEDKSYNVTSVLFRKKKCDYWIRTFVPGAQPGEFTLGNIKSYPGLTSYLVRVVSTNYNQHAMVFFKKVSQNREYFKITLYGRTKELTSELKENFIRFSKSLGLPENHIVFPVPIDQCIDG |  | > 10 |
